{"source": "patent US12343326B2", "about": "“Psychoactive medicines and their use for treating psychiatric and neurological conditions and disorders” (Transcend Therapeutics, Inc., priority 2021, dated 2025)", "assay_in_all_cases": "β-arrestin based GPCR screen (PathHunter / GPCRmax), antagonist mode", "key": {"168 GPCRs [1]": {"biological_target": "168 GPCRs (Homo sapiens, UniProt O43614)", "sequence (O43614 whole entry)": "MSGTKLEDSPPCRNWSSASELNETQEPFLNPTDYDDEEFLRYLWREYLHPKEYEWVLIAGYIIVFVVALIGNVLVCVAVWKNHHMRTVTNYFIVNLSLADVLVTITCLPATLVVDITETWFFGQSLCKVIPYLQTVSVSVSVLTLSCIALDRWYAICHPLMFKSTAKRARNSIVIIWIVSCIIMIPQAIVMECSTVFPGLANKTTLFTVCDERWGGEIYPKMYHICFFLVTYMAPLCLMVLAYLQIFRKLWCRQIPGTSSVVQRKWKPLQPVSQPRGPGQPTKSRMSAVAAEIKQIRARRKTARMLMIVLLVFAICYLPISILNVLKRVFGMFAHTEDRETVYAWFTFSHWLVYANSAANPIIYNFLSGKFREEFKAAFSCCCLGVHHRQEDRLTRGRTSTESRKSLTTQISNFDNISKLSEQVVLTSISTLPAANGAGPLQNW"}, "168 GPCRs [2]": {"biological_target": "T1, 168 GPCRs (Homo sapiens, UniProt P08173)", "T1 sequence (P08173 1-479)": "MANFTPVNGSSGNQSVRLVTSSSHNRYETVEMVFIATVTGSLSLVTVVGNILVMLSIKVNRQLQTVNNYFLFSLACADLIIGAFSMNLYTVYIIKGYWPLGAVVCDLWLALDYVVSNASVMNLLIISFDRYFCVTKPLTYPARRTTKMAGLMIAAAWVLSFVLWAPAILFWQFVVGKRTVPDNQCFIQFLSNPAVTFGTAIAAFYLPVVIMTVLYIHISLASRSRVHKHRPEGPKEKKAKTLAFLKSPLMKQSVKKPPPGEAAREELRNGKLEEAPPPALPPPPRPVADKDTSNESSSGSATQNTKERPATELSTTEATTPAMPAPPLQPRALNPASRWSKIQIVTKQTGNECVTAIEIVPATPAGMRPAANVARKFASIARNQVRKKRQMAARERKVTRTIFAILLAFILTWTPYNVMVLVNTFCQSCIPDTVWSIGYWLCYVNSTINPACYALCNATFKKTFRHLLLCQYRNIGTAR", "conditions": "CHRM4, Antagonist"}, "168 GPCRs [3]": {"biological_target": "T2, 168 GPCRs (Homo sapiens, UniProt P0DMS8)", "T2 sequence (P0DMS8 1-318)": "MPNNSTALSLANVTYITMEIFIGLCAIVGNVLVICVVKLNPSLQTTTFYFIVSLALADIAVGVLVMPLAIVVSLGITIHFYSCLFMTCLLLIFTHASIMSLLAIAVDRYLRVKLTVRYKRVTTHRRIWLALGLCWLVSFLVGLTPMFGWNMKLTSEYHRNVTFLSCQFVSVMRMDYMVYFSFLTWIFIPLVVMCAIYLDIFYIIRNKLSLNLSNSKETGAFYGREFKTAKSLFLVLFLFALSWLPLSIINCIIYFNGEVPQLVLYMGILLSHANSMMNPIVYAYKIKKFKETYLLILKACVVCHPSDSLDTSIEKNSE", "conditions": "ADORA3, Antagonist"}, "168 GPCRs [4]": {"biological_target": "168 GPCRs (Homo sapiens, UniProt P21462)", "sequence (P21462 whole entry)": "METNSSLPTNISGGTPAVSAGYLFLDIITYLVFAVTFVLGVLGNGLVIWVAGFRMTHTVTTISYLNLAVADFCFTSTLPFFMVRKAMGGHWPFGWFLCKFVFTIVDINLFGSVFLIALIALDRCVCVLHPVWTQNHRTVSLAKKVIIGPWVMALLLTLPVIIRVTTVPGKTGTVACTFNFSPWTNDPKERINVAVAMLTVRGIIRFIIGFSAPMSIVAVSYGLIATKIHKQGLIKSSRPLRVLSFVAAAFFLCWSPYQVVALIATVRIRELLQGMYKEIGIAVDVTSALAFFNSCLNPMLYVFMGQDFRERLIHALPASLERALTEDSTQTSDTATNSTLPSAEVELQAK"}, "168 GPCRs [5]": {"biological_target": "168 GPCRs (Homo sapiens, UniProt P21728)", "sequence (P21728 whole entry)": "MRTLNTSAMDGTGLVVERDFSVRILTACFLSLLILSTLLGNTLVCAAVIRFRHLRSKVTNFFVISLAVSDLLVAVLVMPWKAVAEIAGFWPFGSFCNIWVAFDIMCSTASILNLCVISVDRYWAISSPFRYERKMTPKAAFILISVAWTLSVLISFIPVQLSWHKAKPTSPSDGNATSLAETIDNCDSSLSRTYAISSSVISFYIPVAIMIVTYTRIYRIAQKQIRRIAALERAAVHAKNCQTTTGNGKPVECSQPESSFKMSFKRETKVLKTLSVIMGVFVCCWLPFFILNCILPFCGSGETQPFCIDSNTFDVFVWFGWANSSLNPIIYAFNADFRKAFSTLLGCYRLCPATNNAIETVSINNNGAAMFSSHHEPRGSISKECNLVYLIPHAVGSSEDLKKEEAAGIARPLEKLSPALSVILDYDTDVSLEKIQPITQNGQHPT"}, "168 GPCRs [6]": {"biological_target": "168 GPCRs (Homo sapiens, UniProt P25025)", "sequence (P25025 whole entry)": "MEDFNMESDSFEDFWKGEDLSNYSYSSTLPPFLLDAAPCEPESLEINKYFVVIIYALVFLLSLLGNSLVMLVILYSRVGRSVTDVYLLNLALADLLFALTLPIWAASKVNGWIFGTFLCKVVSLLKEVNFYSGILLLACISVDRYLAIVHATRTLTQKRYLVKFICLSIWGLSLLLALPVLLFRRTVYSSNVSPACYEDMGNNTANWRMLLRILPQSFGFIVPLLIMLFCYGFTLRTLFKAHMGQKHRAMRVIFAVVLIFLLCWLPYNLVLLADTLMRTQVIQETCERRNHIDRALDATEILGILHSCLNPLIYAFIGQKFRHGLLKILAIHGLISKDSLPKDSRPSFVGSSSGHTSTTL"}, "168 GPCRs [7]": {"biological_target": "168 GPCRs (Homo sapiens, UniProt P25106)", "sequence (P25106 whole entry)": "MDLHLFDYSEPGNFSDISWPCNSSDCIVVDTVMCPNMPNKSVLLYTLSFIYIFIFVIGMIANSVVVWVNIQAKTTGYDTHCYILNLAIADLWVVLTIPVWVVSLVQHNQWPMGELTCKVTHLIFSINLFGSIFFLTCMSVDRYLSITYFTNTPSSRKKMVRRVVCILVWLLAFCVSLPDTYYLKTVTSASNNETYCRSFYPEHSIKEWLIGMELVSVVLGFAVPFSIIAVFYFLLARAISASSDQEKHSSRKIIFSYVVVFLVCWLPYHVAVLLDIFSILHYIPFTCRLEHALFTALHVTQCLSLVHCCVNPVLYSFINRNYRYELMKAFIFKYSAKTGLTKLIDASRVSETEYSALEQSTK"}, "168 GPCRs [8]": {"biological_target": "168 GPCRs (Homo sapiens, UniProt P32241)", "sequence (P32241 31-457)": "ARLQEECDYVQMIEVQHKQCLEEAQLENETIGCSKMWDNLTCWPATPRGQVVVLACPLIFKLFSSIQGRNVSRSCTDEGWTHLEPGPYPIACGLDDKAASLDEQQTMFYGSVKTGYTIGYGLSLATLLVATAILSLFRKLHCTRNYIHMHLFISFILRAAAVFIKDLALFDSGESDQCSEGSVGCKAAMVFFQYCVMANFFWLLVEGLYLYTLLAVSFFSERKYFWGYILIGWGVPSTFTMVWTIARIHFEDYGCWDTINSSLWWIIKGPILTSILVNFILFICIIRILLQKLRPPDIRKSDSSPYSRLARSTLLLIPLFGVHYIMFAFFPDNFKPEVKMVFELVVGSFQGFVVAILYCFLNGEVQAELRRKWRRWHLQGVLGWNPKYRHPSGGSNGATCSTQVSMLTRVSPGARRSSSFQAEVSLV"}, "168 GPCRs [9]": {"biological_target": "168 GPCRs (Homo sapiens, UniProt P46092)", "sequence (P46092 whole entry)": "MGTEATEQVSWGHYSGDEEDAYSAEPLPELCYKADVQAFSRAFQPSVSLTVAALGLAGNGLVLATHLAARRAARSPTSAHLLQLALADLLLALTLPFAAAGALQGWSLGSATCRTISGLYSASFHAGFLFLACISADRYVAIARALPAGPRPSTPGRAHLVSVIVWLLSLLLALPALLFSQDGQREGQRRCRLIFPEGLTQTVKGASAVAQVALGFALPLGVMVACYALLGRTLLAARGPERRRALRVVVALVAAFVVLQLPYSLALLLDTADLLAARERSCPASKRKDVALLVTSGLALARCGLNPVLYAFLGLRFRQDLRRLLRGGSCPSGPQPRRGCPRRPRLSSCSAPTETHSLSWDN", "conditions": "CCR10, Antagonist"}, "168 GPCRs [10]": {"biological_target": "168 GPCRs (Homo sapiens, UniProt P51686)", "sequence (P51686 whole entry)": "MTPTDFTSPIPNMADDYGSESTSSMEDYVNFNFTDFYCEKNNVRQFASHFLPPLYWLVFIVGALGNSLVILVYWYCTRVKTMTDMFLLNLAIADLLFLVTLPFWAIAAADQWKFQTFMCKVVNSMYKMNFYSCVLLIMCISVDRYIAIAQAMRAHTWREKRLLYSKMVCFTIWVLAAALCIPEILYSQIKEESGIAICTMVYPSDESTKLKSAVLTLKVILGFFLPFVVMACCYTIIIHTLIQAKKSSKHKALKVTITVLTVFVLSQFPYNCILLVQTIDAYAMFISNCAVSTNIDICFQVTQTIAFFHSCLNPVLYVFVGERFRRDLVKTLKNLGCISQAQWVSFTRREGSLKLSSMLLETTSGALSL", "conditions": "CCR9, Antagonist"}, "168 GPCRs [11]": {"biological_target": "168 GPCRs (Homo sapiens, UniProt Q16602)", "sequence (Q16602 23-461)": "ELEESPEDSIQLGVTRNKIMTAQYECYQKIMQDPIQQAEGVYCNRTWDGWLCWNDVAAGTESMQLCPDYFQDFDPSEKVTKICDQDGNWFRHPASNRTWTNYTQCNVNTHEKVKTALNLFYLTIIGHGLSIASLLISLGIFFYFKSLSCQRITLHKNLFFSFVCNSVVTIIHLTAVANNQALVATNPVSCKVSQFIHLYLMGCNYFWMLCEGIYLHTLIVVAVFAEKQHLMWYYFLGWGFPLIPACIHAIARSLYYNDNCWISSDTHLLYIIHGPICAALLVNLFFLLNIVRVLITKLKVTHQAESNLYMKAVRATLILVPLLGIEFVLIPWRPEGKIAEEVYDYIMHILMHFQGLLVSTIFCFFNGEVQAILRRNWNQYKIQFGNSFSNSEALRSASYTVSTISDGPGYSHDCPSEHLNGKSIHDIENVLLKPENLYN", "conditions": "Antagonist"}, "168 GPCRs [12]": {"biological_target": "168 GPCRs (Homo sapiens, UniProt Q969V1)", "sequence (Q969V1 whole entry)": "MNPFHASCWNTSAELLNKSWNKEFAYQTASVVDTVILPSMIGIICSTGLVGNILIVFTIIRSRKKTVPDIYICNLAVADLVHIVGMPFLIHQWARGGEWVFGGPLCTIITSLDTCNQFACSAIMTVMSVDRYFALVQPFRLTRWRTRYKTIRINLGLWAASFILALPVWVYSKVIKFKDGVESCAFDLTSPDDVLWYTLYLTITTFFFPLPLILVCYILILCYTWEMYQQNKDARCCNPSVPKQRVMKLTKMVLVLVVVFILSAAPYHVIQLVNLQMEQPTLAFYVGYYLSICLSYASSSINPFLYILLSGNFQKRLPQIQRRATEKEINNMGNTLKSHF"}, "168 GPCRs [13]": {"biological_target": "168 GPCRs (Homo sapiens, UniProt Q96G91)", "sequence (Q96G91 whole entry)": "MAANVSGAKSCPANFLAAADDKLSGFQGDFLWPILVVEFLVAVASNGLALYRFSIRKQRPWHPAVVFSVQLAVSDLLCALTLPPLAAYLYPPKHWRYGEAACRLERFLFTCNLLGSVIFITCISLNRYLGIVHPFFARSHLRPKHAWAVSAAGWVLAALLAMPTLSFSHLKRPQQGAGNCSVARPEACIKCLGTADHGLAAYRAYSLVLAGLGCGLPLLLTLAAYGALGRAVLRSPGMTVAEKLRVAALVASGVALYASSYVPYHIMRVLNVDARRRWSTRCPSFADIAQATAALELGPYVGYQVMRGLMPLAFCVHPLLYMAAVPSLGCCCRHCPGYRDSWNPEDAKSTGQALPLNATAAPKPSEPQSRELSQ"}, "168 GPCRs [14]": {"biological_target": "T3, 168 GPCRs (Homo sapiens, UniProt Q96RI0)", "T3 sequence (Q96RI0 18-385)": "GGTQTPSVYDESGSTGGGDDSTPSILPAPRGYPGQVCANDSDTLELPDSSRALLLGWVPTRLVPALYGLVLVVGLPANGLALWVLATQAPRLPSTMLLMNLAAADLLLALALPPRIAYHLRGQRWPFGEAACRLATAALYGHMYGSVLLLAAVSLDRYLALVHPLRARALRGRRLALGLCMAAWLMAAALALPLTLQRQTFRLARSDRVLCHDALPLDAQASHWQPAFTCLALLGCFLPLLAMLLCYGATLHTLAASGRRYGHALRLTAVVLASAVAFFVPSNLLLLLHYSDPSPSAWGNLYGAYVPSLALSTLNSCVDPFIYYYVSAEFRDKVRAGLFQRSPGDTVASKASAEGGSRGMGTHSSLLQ"}}, "data": [{"smiles": "CNC(C)C(=O)c1ccc2c(c1)OCO2", "note": "(centres unmarked) [methylone, 3,4-methylenedioxy-N-methylcathinone]", "values": [{"measurement": "activity at 10 µM", "setting": "168 GPCRs [1]; HCRTR2, Antagonist mode, 10 uM", "value": 2.4, "unit": "%"}, {"measurement": "activity at 1 µM", "setting": "168 GPCRs [1]; HCRTR2, Antagonist, 1 uM", "value": 6.4, "unit": "%"}, {"measurement": "activity at 1 µM", "setting": "168 GPCRs [2]; 1 uM", "value": 10.2, "unit": "%"}, {"measurement": "activity at 10 µM", "setting": "168 GPCRs [2]; 10 uM", "value": 6.7, "unit": "%"}, {"measurement": "activity at 1 µM", "setting": "168 GPCRs [3]; 1 uM", "value": 11.3, "unit": "%"}, {"measurement": "activity at 10 µM", "setting": "168 GPCRs [3]; 10 uM", "value": 7.7, "unit": "%"}, {"measurement": "activity at 10 µM", "setting": "168 GPCRs [4]; FPR1, Antagonist mode, 10 uM", "value": -11.4, "unit": "%"}, {"measurement": "activity at 1 µM", "setting": "168 GPCRs [4]; FPR1, Antagonist, 1 uM", "value": -4.9, "unit": "%"}, {"measurement": "activity at 10 µM", "setting": "168 GPCRs [5]; DRD1, Antagonist mode, 10 uM", "value": 7.8, "unit": "%"}, {"measurement": "activity at 1 µM", "setting": "168 GPCRs [5]; DRD1, Antagonist, 1 uM", "value": 6, "unit": "%"}, {"measurement": "activity at 10 µM", "setting": "168 GPCRs [6]; CXCR2, Antagonist mode, 10 uM", "value": -1, "unit": "%"}, {"measurement": "activity at 1 µM", "setting": "168 GPCRs [6]; CXCR2, Antagonist, 1 uM", "value": -7.6, "unit": "%"}, {"measurement": "activity at 10 µM", "setting": "168 GPCRs [7]; CXCR7, Antagonist mode, 10 uM", "value": 7.3, "unit": "%"}, {"measurement": "activity at 1 µM", "setting": "168 GPCRs [7]; CXCR7, Antagonist, 1 uM", "value": 14.1, "unit": "%"}, {"measurement": "activity at 10 µM", "setting": "168 GPCRs [8]; VIPR1, Antagonist mode, 10 uM", "value": 5.3, "unit": "%"}, {"measurement": "activity at 1 µM", "setting": "168 GPCRs [8]; VIPR1, Antagonist, 1 uM", "value": -0.7, "unit": "%"}, {"measurement": "activity at 1 µM", "setting": "168 GPCRs [9]; 1 uM", "value": 5.4, "unit": "%"}, {"measurement": "activity at 10 µM", "setting": "168 GPCRs [9]; 10 uM", "value": 2.6, "unit": "%"}, {"measurement": "activity at 1 µM", "setting": "168 GPCRs [10]; 1 uM", "value": 2.9, "unit": "%"}, {"measurement": "activity at 10 µM", "setting": "168 GPCRs [10]; 10 uM", "value": -9.9, "unit": "%"}, {"measurement": "activity at 1 µM", "setting": "168 GPCRs [11]; CALCRL-RAMP1", "value": 4.7, "unit": "%"}, {"measurement": "activity at 10 µM", "setting": "168 GPCRs [11]; CALCRL-RAMP1", "value": 7, "unit": "%"}, {"measurement": "activity at 1 µM", "setting": "168 GPCRs [11]; CALCRL-RAMP2", "value": 19.1, "unit": "%"}, {"measurement": "activity at 10 µM", "setting": "168 GPCRs [11]; CALCRL-RAMP2", "value": 7, "unit": "%"}, {"measurement": "activity at 1 µM", "setting": "168 GPCRs [11]; CALCRL-RAMP3", "value": -18.5, "unit": "%"}, {"measurement": "activity at 10 µM", "setting": "168 GPCRs [11]; CALCRL-RAMP3", "value": -7.5, "unit": "%"}, {"measurement": "activity at 10 µM", "setting": "168 GPCRs [12]; MCHR2, Antagonist mode, 10 uM", "value": -4.5, "unit": "%"}, {"measurement": "activity at 1 µM", "setting": "168 GPCRs [12]; MCHR2, Antagonist, 1 uM", "value": 2, "unit": "%"}, {"measurement": "activity at 10 µM", "setting": "168 GPCRs [13]; P2RY11, Antagonist mode, 10 uM", "value": 6.6, "unit": "%"}, {"measurement": "activity at 1 µM", "setting": "168 GPCRs [13]; P2RY11, Antagonist, 1 uM", "value": 2.7, "unit": "%"}, {"measurement": "activity at 10 µM", "setting": "168 GPCRs [14]; F2RL3, Antagonist mode, 10 uM", "value": -6.9, "unit": "%"}, {"measurement": "activity at 1 µM", "setting": "168 GPCRs [14]; F2RL3, Antagonist, 1 uM", "value": -11.3, "unit": "%"}]}]}
